Test results from article PMC13224100, “Esterase-Responsive Mitochondria-Targeted Hydropersulfide Donors Mitigate Doxorubicin Cardiotoxicity While Preserving Anticancer Activity” (Angewandte Chemie (International ed. in English), 2025).
“And” between values parts separate entries of the source, which are not always exact repeats. Identical values can stand only once.

What was measured:
[1] = system: H9c2 cells; test: Cytoprotection against DOX-induced toxicity, CCK-8 assay; format: cell-based; details: 4 h pretreatment, then 24 h co-treatment with DOX 5 μM
Procedure: We evaluated the cytoprotective effects of RSSH precursors against DOX-induced cardiotoxicity in H9c2 cardiomyoblasts. First, we assessed the cytotoxicity of the RSSH donors (AST-2, APT-1, AST-2-TPP, and APT-1-TPP) using the CCK-8 assay.[24] […] To evaluate cytoprotection, H9c2 cells were pretreated with RSSH donors for 4 h, followed by 24 h co-treatment with DOX (5 μM). As expected, DOX alone reduced cell viability to ca. 50% (Figure 4a). […] Although both compounds were protective, no enhancement of potency was observed upon TPP conjugation. […] A distinctive feature of our study is the direct comparison between mitochondria-targeted and non-targeted RSSH donors. […] TPP conjugation only modestly enhances the cytoprotective effects of RSSH donors under our experimental conditions. This outcome may reflect the intrinsic high efficacy of non-targeted RSSH donors, thereby limiting the additional benefit of mitochondrial targeting.
Figure 4. Protective effects of RSSH donors against DOX-induced cytotoxicity in H9c2 cells. Cells were pretreated with RSSH donors for 4 h, followed by exposure to DOX (5 μM) for an additional 24 h. Cell viability was assessed using the cell counting Kit-8 (CCK-8) assay. Results are expressed as mean ± SEM, n = 3; *P < 0.05, **P < 0.01, ***P < 0.001, ****P < 0.0001. Ctl = vehicle-treated group (0.01% DMSO in medium). […]
Cytoprotective Effects of RSSH Donors against Doxorubicin Toxicity
Cytoprotective studies were performed as previously described.[8] Briefly, H9c2 cells, HepG2 cells, MDA-MB-468 cells, and MCF-7 cells were seeded at a density of 7 x 10^3 cells/well. […] Additionally, in the vehicle control group, cells were treated with medium (DMEM with 10% FBS) containing 0.01% DMSO only. The cells were then further incubated for an additional 4 h before being treated with DOX (10 μL/well, with final concentration of 5 μM). After a 24 h co-incubation with DOX, each well was carefully washed three times with PBS (pH 7.4) and 100 μL o f F B S-free medium containing 10% v/v CCK-8 (Dojindo) was added. The plates were then incubated for 1-2 h before measuring absorbance at […]
The relative % cell viability was calculated as 100 times the ratio of Abs450 (RSSH donor + DOX-exposed) to Abs450 (vehicle, non-DOX-exposed). Each treatment condition was performed in 6 technical replicates per biological replicate, and the experiment was independently repeated three times (n = 3 biological replicates). Data are presented as mean ± SEM. […]

[2] = system: porcine liver esterase (PLE); test: Esterase-mediated RSSH release kinetics with HPE-IAM trapping (UPLC-MS); format: biochemical; details: precursor 25 μM, PLE 1 U mL^−1, HPE-IAM 250 μM, ammonium bicarbonate pH 7.4, DTPA, 37 °C; for half-life at 25 µM: pig, porcine liver esterase, read-out: t1/2 (min) Precursor consumption
Procedure: We then assessed esterase-mediated activation of AST-2 by incubating it with porcine liver esterase (PLE) in the presence of β-(4-hydroxyphenyl)ethyl iodoacetamide (HPE-IAM, 10 equiv), a trapping agent for RSSH.[39] We anticipated that PLE-catalyzed hydrolysis would release RSSH, which would subsequently be trapped by HPE-IAM to generate RSS-HPE-AM (Figure 1a). […] In addition, a minor amount of dialkyl trisulfide formation is observed (Figures 1b and S5), which we attribute to the reaction of the released RSSH with the precursor AST-2.
Figure 1. a) Schematic of esterase-mediated RSSH release from AST-2 in the presence of the trapping agent HPE-IAM. b) Representative UPLC-MS traces showing time-dependent conversion of AST-2 (25 μM) to RSS-HPE-AM upon treatment with porcine liver esterase (1 U mL^−1) and HPE-IAM (250 μM) in 100 mM ammonium bicarbonate buffer (pH 7.4) containing the metal chelator diethylenetriaminepentaacetic acid (DTPA) (100 μM) at 37 °C. Aliquots were quenched with formic acid and analyzed by UPLC-MS. […] Rate constants and half-lives are reported as mean ± SD (n = 3). Curves represent best fits to single-exponential functions.
Figure 2. a) Reaction scheme showing esterase-triggered RSSH release from APT-1 via a two-step activation involving deacetylation and intramolecular cyclization. b) Representative UPLC-MS traces showing the time-dependent conversion of APT-1 (25 μM) to intermediate 1 and subsequent formation of RSS-HPE-AM in the presence of PLE (1 U mL^−1) and HPE-IAM (250 μM) at 37 °C. Asterisk indicates a minor impurity in the blank control. […] Rate constants and half-lives are reported as mean ± SD (n = 3). Curves represent best fits to single exponential functions as described in the text.
B. Kinetics of RSSH Generation.
Kinetics of RSSH generation were conducted as previously described.[5] Stock solutions of RSSH […]
precursor (10 mM in DMSO), HPE-IAM (100mM in DMSO), and porcine liver esterase (PLE, 2000 U/mL in ammonium bicarbonate buffer) were freshly prepared. RSSH precursors (25 μM) were […]
then immediately incubated with HPE-IAM (250 μM) and PLE (1 U/mL, from Sigma-Aldrich, […]
E3019-20KU, ≥ 15 U/mg protein) in ammonium bicarbonate buffer (100 mM, pH 7.4) containing diethylenetriaminepentaacetic acid (DTPA, 100 μM) at 37 °C. At the indicated time points, 500 μL […]
aliquots were withdrawn, quenched with concentrated formic acid (5 μL, […]), and […]
ultracentrifuged at 12,500 rpm for 5 min. The resulting supernatants were diluted with acetonitrile […]
(200 μL supernatant + 300 μL of acetonitrile) and analyzed by UPLC–MS using a Waters Acquity […]
(MSe, 10 scans/s). Chromatographic separation was performed on a C18 reverse-phase column […]
(Waters Acquity BEH C18, 2.1 × 50 mm, 1.7 μm) at 4 °C, with a flow rate of 0.3 mL/min and the […]
following gradient (v/v; water containing 0.1% formic acid as solvent A, acetonitrile as solvent B):
B; 8.5–10 min, return to 100% A. The injection volume was 5 μL. Mass spectral data were […]
processed using MassLynx 4.1, and extracted ion chromatograms (EICs) corresponding to the […]
exact masses of the RSSH precursor, intermediate, and the trapped product (RSS–HPE-AM) […]
were integrated to quantify substrate consumption and product formation. Kinetic data were fitted […]
to a single exponential curve using Origin. All experiments were performed in triplicate (n = 3), […]
and results are reported as mean ± standard deviation (SD).
HRMS Data for Compounds Formed during RSSH Generation from AST-2 […]
Figure S2. HRMS of the peak eluting at 5.6 min corresponding to AST-2.
Esterase-mediated hydrolysis of AST-2-TPP monitored by UPLC-MS […]
Figure S11. (A) Representative UPLC-MS traces showing esterase-mediated hydrolysis of AST-2-TPP (25 […]
μM) in the presence of HPE-IAM (250 μM) in ammonium bicarbonate buffer (pH 7.4, 100 mM) containing […]
the metal chelator DTPA (100 μM) at 37 °C. […]

Row | Structure (SMILES) | protection against DOX-induced cytotoxicity [1] | half-life at 25 µM [2] | first-order rate constant k (k1) of precursor consumption / deacetylation [2] | first-order rate constant k (k2) of RSS-HPE-AM formation (RSSH release) [2] | concentration of maximal protection [1] | concentration with significant protective effects [1]
1 | CC(=O)NC(C(=O)N(C)CCC[P+](c1ccccc1)(c1ccccc1)c1ccccc1)C(C)(C)SSC(=O)N(C)CCOC(C)=O (centres unmarked) [APT-1-TPP] | dose-dependent cytoprotective effect | 5.2 ± 0.2 min | 0.1338 ± 0.0049 min⁻¹ and 0.134 ± 0.005 min⁻¹ | 0.0056 ± 0.0004 min⁻¹ | – | –
2 | COC(=O)C(NC(C)=O)C(C)(C)SSC(=O)N(C)CCOC(C)=O (centres unmarked) [APT-1] | dose-dependent cytoprotective effect | 17.1 ± 0.4 min | 0.0406 ± 0.0010 min⁻¹ | 0.0067 ± 0.0006 min⁻¹ | – | –
3 | COC(=O)SSC(C)(C)C(NC(C)=O)C(=O)N(C)CCC[P+](c1ccccc1)(c1ccccc1)c1ccccc1 (centres unmarked) [AST-2-TPP] | dose-dependent protection | 20.7 ± 0.6 min | 0.0335 ± 0.0010 min⁻¹ | 0.03467 ± 0.0028 min⁻¹ and 0.0347 ± 0.0028 min⁻¹ | 25 µM | ≥ 1 µM
4 | COC(=O)SSC(C)(C)C(NC(C)=O)C(=O)OC (centres unmarked) [AST-2] | dose-dependent protection | 50.1 ± 1.8 min | 0.0139 ± 0.0005 min⁻¹ | 0.0144 ± 0.0006 min⁻¹ | 25 µM | ≥ 1 µM
